From patent publication US8859776B2, “Substituted piperidines that increase p53 activity and the uses thereof” (Merck Sharp & Dohme Corp., priority 2009, dated 2014) come the findings set out here.

Sequence of HDM2 protein (Q00987 whole entry): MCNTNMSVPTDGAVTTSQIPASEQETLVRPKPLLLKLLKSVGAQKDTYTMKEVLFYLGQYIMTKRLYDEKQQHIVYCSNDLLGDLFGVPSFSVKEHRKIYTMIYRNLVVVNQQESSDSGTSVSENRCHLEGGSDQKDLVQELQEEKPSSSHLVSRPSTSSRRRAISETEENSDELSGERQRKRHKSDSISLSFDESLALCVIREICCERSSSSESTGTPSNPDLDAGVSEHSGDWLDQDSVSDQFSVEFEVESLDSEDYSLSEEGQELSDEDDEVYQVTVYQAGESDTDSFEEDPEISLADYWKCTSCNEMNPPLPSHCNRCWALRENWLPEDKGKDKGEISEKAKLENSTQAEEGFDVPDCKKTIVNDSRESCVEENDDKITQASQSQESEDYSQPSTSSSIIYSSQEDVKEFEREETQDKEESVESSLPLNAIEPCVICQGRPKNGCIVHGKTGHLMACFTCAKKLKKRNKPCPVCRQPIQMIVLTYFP

The assay has as its target HDM2 protein (Homo sapiens, UniProt Q00987). The assay can be described thus: fluorescence polarization assay for HDM2 inhibitory activity. The class given is binding. The note with it: read-out: FP (IC 50 uM). From the text: The inventive compounds can readily be evaluated to determine activity at the HDM2 protein by known methods such as the fluorescence polarization screening assay that measures the inhibitory concentration that achieves 50% of maximal activity (FP IC50) and the dissociation constant for inhibitor binding (FP Ki). [Zhang et al., J. Analytical Biochemistry 331: 138-146 (2004)].
`CCC[C@H]1N(C(=O)c2cnccc2C(F)(F)F)CCC[C@@]1(Oc1csc(C(F)(F)F)c1)C(=O)N1CCC(c2ccccc2OCCCC(=O)NS(=O)(=O)C2CC2)CC1` [Compound A2]: the IC50 was found to be 0.009 µM.

As to `CCC[C@H]1N(C(=O)c2cnccc2C(F)(F)F)CCC[C@@]1(Oc1csc(C(F)(F)F)c1)C(=O)N1CCC(C#N)(c2ccccc2OCCCCC(=O)O)CC1` [Compound A4], the IC50 amounted to 0.014 µM.

For the compound `CCC[C@H]1N(C(=O)c2cnccc2C(F)(F)F)CCC[C@@]1(Oc1csc(C(F)(F)F)c1)C(=O)N1CCC(c2nn[nH]n2)(c2ccccc2OC)CC1` [Compound A54], the IC50 came out at 0.019 µM.

Turning to `CCC[C@H]1N(C(=O)c2cnccc2C(F)(F)F)CCC[C@@]1(Oc1ccc(C(F)(F)F)cc1)C(=O)N1CCC(C#N)(c2ccccc2CCC(=O)O)CC1` [Compound A83], the IC50 stood at 0.013 µM.

On to `CCC[C@H]1N(C(=O)c2ncccc2C(F)(F)F)CCC[C@@]1(Oc1csc(C(F)(F)F)c1)C(=O)N1CCC(O)(c2ccccc2OCCCP(=O)(O)O)CC1` [Compound A89, 3-(2-(4-hydroxy-1-((2R,3S)-2-propyl-1-(3-(trifluoromethyl)picolinoyl)-3-(5-(trifluoromethyl)thiophen-3-yloxy)piperidine-3-carbonyl)piperidin-4-yl)phenoxy)propylphosphonic acid], for which the IC50 was 0.011 µM.

As for `CCC[C@H]1N(C(=O)c2cnccc2C(F)(F)F)CCC[C@@]1(Oc1csc(C(F)(F)F)c1)C(=O)N1CCC(c2ccccc2CCc2nnn[nH]2)CC1` [Compound A133, (4-(2-(2-(1H-tetrazol-5-yl)ethyl)phenyl)piperidin-1-yl)((2R,3S)-2-propyl-1-(4-(trifluoromethyl)nicotinoyl)-3-(5-(trifluoromethyl)thiophen-3-yloxy)piperidin-3-yl)methanone], the IC50 was 0.011 µM.

Take `CCC[C@H]1N(C(=O)c2ncccc2C(F)(F)F)CCC[C@@]1(Oc1csc(C(F)(F)F)c1)C(=O)N1CCC(O)(c2ccccc2O[C@@H]2CC[C@](C)(C(=O)NS(C)(=O)=O)C2)CC1` [Compound A145]: the IC50 turned out to be 0.008 µM.
